Source: patent US20090060984A1, “ANIONIC SURFACTANTS LETHAL TO GRAM-POSITIVE BACTERIA” (priority 2007, published 2009)
Like-named read-outs stand apart in the source and are kept apart here.

Test system: E. coli ATCC 11229
Procedure: Escherichia coli ATCC 11229 (Culti-loops, Remel Europe, Dartford, Kent, UK) and Pseudomonas aeruginosa ATCC 15442 (Cuti-loops, Remel Europe, Dartford, Kent, UK) were selected as model Gram-negative organisms for the challenge testing of the antimicrobial coatings. Each bacterial strain was streaked for isolated colonies on Tryptic Soy Agar (TSA) plates (Difco, Becton Dickinson, Sparks, Md., U.S.A.) and incubated at 37° C. for 12 to 18 hours. Broth cultures were prepared by first picking 1-2 isolated colonies from TSA plates and inoculating 5 mL Tryptic Soy Broth (TSB; Difco, Becton Dickinson, Sparks, Md., U.S.A.) in a 16 mm test tube. This culture was grown in a shaking water bath at 150 RPM for 8 hours at 37° C. After the eight hours, 125 μL of this culture was added to 50 mL of TSB in a side-arm Klett flask and grown for approximately 8 hours in shaking water bath (150 RPM) at 37° C. The bacterial broths were grown to an A590 of 1.2-1.5, which correlated to approximately 10^9 CFU (colony forming units)/mL. 25 mL of this broth were transferred to a sterile 30 mL Oakridge tube and centrifuged at 12,000×g for 10 minutes at 4° C. (Sorval SS34 rotor) to pelletize the bacteria. The bacterial pellet was washed once and resuspended in 25 mL of phosphate buffer solution (PBS; BBL, FTA Hemaglutination Buffer, Becton Dickinson, Sparks, Md., U.S.A.). The suspension was diluted with PBS to achieve the target range of 10^5-10^6 CFU/mL and used to inoculate the slides containing antibacterial coatings.
The glass slides are then washed with acetone and water.
The 10% substitution on this weight basis corresponds to substitution of one tenth of the total surfactant weight or to 3% of the total composition weight.
Bacterial cultures as prepared and described in Example 12 are applied to the surfactant polymer coated slides as prepared and described in Example 26. All inoculations are performed in a laminar flow hood. Sterilized slides are placed into a sterile Petri dish. Then 0.5 mL of the prepared bacterial suspensions is pipetted directly onto the slide, which spreads across the surface of the coating but remains on top of the slide.
The surviving bacteria from the exposures described in Example 27 are determined as follows: At each time point, 25 mL of sterile PBS is pipetted into the Petri dish completely submerging the slide, and a sterile plastic inoculating loop is used to release any viable bacteria remaining on the surface of the coating. Samples are plated onto TSA plates, and incubated at 37° C. for at least 24 h. Plates containing between 30 and 300 isolated colonies are counted.

[1] = 0.061% weight w/w Ag in coating (first column 0.113), polyurethane, microscope slides
[2] = 0.122% weight w/w Ag in coating (first column 0.226), polyurethane, microscope slides
[3] = 24 hour exposure, polyurethane coated lantern slides
[4] = […] weight w/w Ag in coating (first column 0.0574), polyurethane, microscope slides

## CCCCC(CC)COC(=O)CC(C(=O)OCC(CC)CCCC)S(=O)(=O)[O-].[Ag+] (stereo not drawn) [AgAOT]
[1]
  CFU/mL of E. coli at 12 hours: 0, 0, 0 CFU/mL
  CFU/mL of E. coli at 24 hours: 0, 0, 0 CFU/mL
[2]
  CFU/mL of E. coli at 12 hours: 0, 0, 0 CFU/mL
  CFU/mL of E. coli at 24 hours: 0, 0, 0 CFU/mL
0.5% substituted for sodium salt in coating ([…] weight silver), polyurethane coated lantern slides
  CFU/mL of E. coli at 24 hours: 0; 0 CFU/mL
1.0% substituted for sodium salt in coating (0.061% weight silver), polyurethane coated lantern slides
  CFU/mL of E. coli at 24 hours: 0; 0 CFU/mL
3.0% substituted for sodium salt in coating ([…] weight silver), polyurethane coated lantern slides
  CFU/mL of E. coli at 24 hours: 0; 0 CFU/mL
10.0% substituted for sodium salt in coating (0.61% weight silver), polyurethane coated lantern slides
  CFU/mL of E. coli at 24 hours: 0; 0 CFU/mL
12 hours of exposure
  Overall silver level effective as bactericide: 0.06 % weight silver relative to coating weight
[3]
  Ag+ level resulting in complete killing of the E. coli: ≥ 0.031 % Ag+ relative to coating weig
  Level of substitution resulting in complete killing of the E. coli: ≥ 0.5 % weight relative to the 30% N
24 hours of exposure
  Overall silver level effective as bactericide: 0.006 % weight silver relative to coating weight
[…] weight w/w Ag in coating (first column 0.0226), polyurethane, microscope slides
  CFU/mL of E. coli at 24 hours: 0, 0, 0 CFU/mL
[4]
  CFU/mL of E. coli at 12 hours: 0, 0, 0 CFU/mL
  CFU/mL of E. coli at 24 hours: 0, 0, 0 CFU/mL
